Reference: US11072588B2, “Barbituric acid derivatives comprising cationic and lipophilic groups” (UNIVERSITETET I TROMSØ—NORGES ARKTISKE UNIVERSITET, priority 2017, dated 2021)
≈ marks a conversion by molar mass, not a printed value.

Tests used:
P. aeruginosa 50692172 = test: MIC, multi-resistant clinical isolate; assay type: cell-based, Pseudomonas aeruginosa; settings: for MIC: Pseudomonas aeruginosa, read-out: Antimicrobial activity (MIC); for selectivity index (EC50/MIC): RBC EC50 / MIC
Procedure: (§1) Working solutions of the test derivatives were prepared with up to 100% DMSO and stored at −20° C. If necessary, the solutions were heated to 40-80° C. before testing to facilitate complete dissolution. Double-distilled water was used in all dilutions prepared. […] A microdilution susceptibility test was used for MIC determination according to Clinical and Laboratory Standards Institute, “Methods for Dilution Antimicrobial Sisceptibility Tests for Bacteria That Graw Aerobically”, Approved Standard M07-A9, edition 2012, with modifications as described by Igumnova et al (Bioorg Med Chem, 2016, 24 (22), 5884-5894).
(§2) Briefly, the bacterial inoculum was adjusted to approximately 2.5-3×10^4 cells/mL in Mueller-Hinton broth (MHB, Difco Laboratories, USA), and incubated in a ratio of 1:1 with test derivatives in polystyrene 96-well flat-bottom microplates (NUNC, Roskilde, Denmark). Positive growth control (without test derivatives) and negative control (without bacteria) were included. The reference antibiotic was oxytetracycline hydrochloride (Sigma Aldrich, Saint Louis, Mo., USA). The microplates were incubated in an EnVision microplate reader (Perkin-Elmer, Turku, Finland) placed in an incubator set to 35° C. for 48 h. The MIC value was defined as the lowest concentration of derivative resulting in no bacterial growth as determined by OD600 measurement. All derivatives were tested in three parallels.
(§3) The MIC was determined as explained above with some exceptions; working solutions of test derivatives were prepared from concentrated DMSO stocks stored at room temperature, the density of the bacterial inoculum was increased 40× to 1-1.2×10^6 cells/mL, enterococci were incubated in Brain Heart Infusion broth (BHIB, Difco Laboratories, USA), the microplates were incubated for 24 h, and the derivatives were tested in four parallels.

P. aeruginosa K34-7 = test: MIC, multi-resistant clinical isolate; assay type: cell-based, Pseudomonas aeruginosa; settings: for MIC: Pseudomonas aeruginosa, K347, read-out: Antimicrobial activity (MIC); for selectivity index (EC50/MIC): RBC EC50 / MIC, P. aeruginosa K34-7
Procedure: as §1, §2, §3

P. aeruginosa K44-24 = test: MIC, multi-resistant clinical isolate; assay type: cell-based, Pseudomonas aeruginosa; settings: for MIC: Pseudomonas aeruginosa, K4424, read-out: Antimicrobial activity (MIC)
Procedure: as §1, §2, §3

P. aeruginosa K34-73 = test: MIC, multi-resistant clinical isolate; assay type: cell-based, Pseudomonas aeruginosa; settings: for MIC: Pseudomonas aeruginosa, K3473, read-out: Antimicrobial activity (MIC); for selectivity index (EC50/MIC): RBC EC50 / MIC, P. aeruginosa K34-73
Procedure: as §1, §2, §3

P. aeruginosa 50692520 = test: MIC, multi-resistant clinical isolate; assay type: cell-based, Pseudomonas aeruginosa; settings: for MIC: Pseudomonas aeruginosa, read-out: Antimicrobial activity (MIC); for selectivity index (EC50/MIC): RBC EC50 / MIC
Procedure: as §1, §2, §3

[1] = Determination of haemolytic activity; assay type: cell-based; settings: human red blood cells (washed, from heparinized fresh blood); human RBCs, 1 h, 37° C.; read-out: RBC: haemolytic activity against human RBCs (EC50)
Procedure: Hemolysis was determined using a heparinized fraction (1000 IU/mL) of freshly drawn blood. Blood collected in EDTA containing test tubes (Vacutest®, KIMA, Arzergrande, Italy) was used for determination of the hematocrit (hct). The heparinized blood was washed 3× with pre-warmed PBS and adjusted to a final hct of 4%. Derivatives in DMSO (50 mM) were added to a 96-well polypropylene V-bottom plate (NUNC, Fisher Scientific, Oslo, Norway) and serially diluted. The test concentration range was 500-4 μM with DMSO contents ≤1%. A solution of 1% triton X-100 was used as positive control for 100% hemolysis. As negative control a solution of 1% DMSO in PBS buffer was included. No signs of DMSO toxicity were detected. RBCs (1% v/v final concentration) were added to the well plate and incubated at 37° C. and 800 rpm for 1 h. After centrifugation (5 min, 3000 g), 100 μL of each well were transferred to a 96-well flat bottom plate and absorbance was measured at 545 nm with a microplate reader (VersaMax™, Molecular Devices, Sunnyvale, Calif., USA). The percentage of hemolysis was calculated as the ratio of the absorbance in the derivative-treated and surfactant treated samples, corrected for the PBS background. Three independent experiments were performed and EC50 values are presented as averages.

[2] = test system: antibiotic susceptible Gram-positive and Gram-negative reference strains; test: MIC assay, ranges over the reference strains; assay type: cell-based; settings: range over S. aureus, C. glutamicum, E. coli, P. aeruginosa reference strains; read-out: MIC values against all the reference strains
Procedure: as §1, §2

K. pneumoniae 50667959 = test: MIC, multi-resistant clinical isolate; assay type: cell-based, Klebsiella pneumoniae; settings: for MIC: Klebsiella pneumoniae, read-out: Antimicrobial activity (MIC)
Procedure: as §1, §2, §3

K. pneumoniae K66-45 = test: MIC, multi-resistant clinical isolate; assay type: cell-based, Klebsiella pneumoniae; settings: for MIC: Klebsiella pneumoniae, K6645, read-out: Antimicrobial activity (MIC)
Procedure: as §1, §2, §3

K. pneumoniae 50531633 = test: MIC, multi-resistant clinical isolate; assay type: cell-based, Klebsiella pneumoniae; settings: K. pneumoniae 50531633, resistant to colistin; for MIC: Klebsiella pneumoniae, 24 h, read-out: Antimicrobial activity (MIC); for selectivity index (EC50/MIC): RBC EC50 / MIC
Procedure: as §1, §2, §3

K. pneumoniae K47-25 = test: MIC, multi-resistant clinical isolate; assay type: cell-based, Klebsiella pneumoniae; settings: for MIC: Klebsiella pneumoniae, K4725, 24 h, read-out: Antimicrobial activity (MIC)
Procedure: as §1, §2, §3

S. aureus IHT 99040 = test: MIC, multi-resistant clinical isolate; assay type: cell-based, Staphylococcus aureus; settings: for selectivity index (EC50/MIC): RBC EC50 / MIC; for MIC: Staphylococcus aureus, IHT99040, read-out: Antimicrobial activity (MIC)
Procedure: as §1, §2, §3

S. aureus N315 = test: MIC, multi-resistant clinical isolate; assay type: cell-based, Staphylococcus aureus; settings: for selectivity index (EC50/MIC): RBC EC50 / MIC, S. aureus N315; for MIC: Staphylococcus aureus, N315, read-out: Antimicrobial activity (MIC)
Procedure: as §1, §2, §3

S. aureus strain WIS = test: MIC, multi-resistant clinical isolate; assay type: cell-based, Staphylococcus aureus; settings: for selectivity index (EC50/MIC): RBC EC50 / MIC, S. aureus strain WIS; for MIC: Staphylococcus aureus, read-out: Antimicrobial activity (MIC)
Procedure: as §1, §2, §3

S. aureus strain 85/2082 = test: MIC, multi-resistant clinical isolate; assay type: cell-based, Staphylococcus aureus; settings: for selectivity index (EC50/MIC): RBC EC50 / MIC, S. aureus strain 85/2082; for MIC: Staphylococcus aureus, 85/2082, read-out: Antimicrobial activity (MIC)
Procedure: as §1, §2, §3

S. aureus NCTC 10442 = test: MIC, multi-resistant clinical isolate; assay type: cell-based, Staphylococcus aureus; settings: for selectivity index (EC50/MIC): RBC EC50 / MIC, S. aureus NCTC 10442; for MIC: Staphylococcus aureus, NCTC10442, read-out: Antimicrobial activity (MIC)
Procedure: as §1, §2, §3

K. pneumoniae 50625602 = test: MIC, multi-resistant clinical isolate; assay type: cell-based, Klebsiella pneumoniae; settings: Klebsiella pneumoniae, read-out: Antimicrobial activity (MIC)
Procedure: as §1, §2, §3

Row | Structure (SMILES) | MIC (P. aeruginosa 50692172) [mg/L] | selectivity index (EC50/MIC) (P. aeruginosa 50692172) | MIC (P. aeruginosa K34-7) [mg/L] | selectivity index (EC50/MIC) (P. aeruginosa K34-7) | MIC (P. aeruginosa K44-24) [mg/L] | MIC (P. aeruginosa K34-73) [mg/L] | selectivity index (EC50/MIC) (P. aeruginosa K34-73) | MIC (P. aeruginosa 50692520) [mg/L] | selectivity index (EC50/MIC) (P. aeruginosa 50692520) | EC50 at 1 h [1] [mg/L] | MIC (K. pneumoniae 50667959) [mg/L] | MIC (K. pneumoniae K66-45) [mg/L] | MIC (K. pneumoniae 50531633) [mg/L] | selectivity index (EC50/MIC) (K. pneumoniae 50531633) | MIC (K. pneumoniae K47-25) [mg/L] | selectivity index (EC50/MIC) (S. aureus IHT 99040) | MIC (S. aureus IHT 99040) [mg/L] | selectivity index (EC50/MIC) (S. aureus N315) | MIC (S. aureus N315) [mg/L] | selectivity index (EC50/MIC) (S. aureus strain WIS) | other results
1 | NCCCCN1C(=O)N(CCCCN)C(=O)C(Cc2cc(Br)cc(Br)c2)(Cc2cc(Br)cc(Br)c2)C1=O [7(ii)] | 16 (≈ 20.9 µM) | (5) | 16 (≈ 20.9 µM) | (5) | 16 (≈ 20.9 µM) | 16 (≈ 20.9 µM) | (5) | 16 (≈ 20.9 µM) | (5) | 83 (≈ 108 µM) | 16 (≈ 20.9 µM) | 16 (≈ 20.9 µM) | 8 (≈ 10.4 µM) | (10) | 16 (≈ 20.9 µM) | (21) | 4 (≈ 5.22 µM) | (21) | 4 (≈ 5.22 µM) | (21) | selectivity index (EC50/MIC) (P. aeruginosa K44-24; RBC EC50 / MIC): (5); MIC [2]: 1 to 8 mg/L (≈ 1.31 to 10.4 µM); selectivity index (EC50/MIC) (K. pneumoniae 50667959; RBC EC50 / MIC): (5); selectivity index (EC50/MIC) (K. pneumoniae K66-45; RBC EC50 / MIC, K. pneumoniae K66-45): (5); selectivity index (EC50/MIC) (K. pneumoniae K47-25; RBC EC50 / MIC, K. pneumoniae K47-25, resistant to colistin): (5); MIC (S. aureus strain WIS): 4 mg/L (≈ 5.22 µM); selectivity index (EC50/MIC) (S. aureus strain 85/2082): (21); MIC (S. aureus strain 85/2082): 4 mg/L (≈ 5.22 µM); selectivity index (EC50/MIC) (S. aureus NCTC 10442): (21); MIC (S. aureus NCTC 10442): 4 mg/L (≈ 5.22 µM)
2 | NCCCCN1C(=O)N(CCCCN)C(=O)C(Cc2ccc3ccccc3c2)(Cc2ccc3ccccc3c2)C1=O [7(iv), 1,3-bis(4-aminobutyl)-5,5-bis(naphtalen-2-yl-methyl)-pyrimidin-2,4,6(1H,3H,5H)-trione] | 32 (≈ 58.1 µM) | (8) | 32 (≈ 58.1 µM) | (8) | > 32 | 32 (≈ 58.1 µM) | (8) | 32 (≈ 58.1 µM) | (8) | 243 (≈ 441 µM) | > 32 | > 32 | 32 (≈ 58.1 µM) | (8) | > 32 | (30) | 8 (≈ 14.5 µM) | (30) | 8 (≈ 14.5 µM) | (30) | MIC (K. pneumoniae 50625602): > 32 mg/L; MIC (S. aureus strain WIS): 8 mg/L (≈ 14.5 µM); selectivity index (EC50/MIC) (S. aureus strain 85/2082): (30); MIC (S. aureus strain 85/2082): 8 mg/L (≈ 14.5 µM); selectivity index (EC50/MIC) (S. aureus NCTC 10442): (30); MIC (S. aureus NCTC 10442): 8 mg/L (≈ 14.5 µM)
